The compounds below were run against WDR5 (Homo sapiens (Human), UniProt P61964) (assay: Surface Plasmon Resonance (SPR) assay, KD and residence time). Conditions: surface plasmon resonance (SPR); read-out: WDR5 binding affinity (KD).
Format: binding
With `CC1CN(c2cc(F)c(-c3ccc(C(=O)NC(C)(C)CC(C)(C)C)c(F)c3F)cc2NC(=O)c2ccc(F)cc2C(F)(F)F)CCN1C` (stereo in doubt) [Example 666, 2,3-difluoro-4-[2-fluoro-5-[[4-fluoro-2-(trifluoromethyl)benzoyl]amino]-4-[(3R)-3,4-dimethylpiperazin-1-yl]phenyl]-N-(2,4,4-trimethylpentan-2-yl)benzamide] the Kd was 117 nM. Compound `CC1CN(c2cc(F)c(-c3ccc(C(N)=O)c(F)c3F)cc2NC(=O)c2ccc(F)cc2C(F)(F)F)CCN1C` (stereo in doubt) [Example 668, 2,3-difluoro-4-[2-fluoro-5-[[4-fluoro-2-(trifluoromethyl)benzoyl]amino]-4-[(3R)-3,4-dimethylpiperazin-1-yl]phenyl]benzamide] has a Kd of 18.3 nM. In the case of `CC1CN(c2cc(F)c(-c3cccc(N4CCOCC4)n3)cc2NC(=O)c2cn(C)c(=O)cc2C(F)F)CCN1C` (stereo in doubt) [Example 672, 4-(difluoromethyl)-N-[4-fluoro-5-(6-morpholin-4-ylpyridin-2-yl)-2-[(3R)-3,4-dimethylpiperazin-1-yl]phenyl]-1-methyl-6-oxopyridine-3-carboxamide], the Kd is reported as 5.02 nM. Compound `CC1CN(c2cc(F)c(-c3cccc(N4CCOCC4)n3)cc2NC(=O)c2ccc(F)cc2C(F)(F)F)CCN1C` (stereo in doubt) [Example 673, 4-fluoro-N-[4-fluoro-5-(6-morpholin-4-ylpyridin-2-yl)-2-[(3R)-3,4-dimethylpiperazin-1-yl]phenyl]-2-(trifluoromethyl)benzamide] has a Kd of 3.18 nM. For `CC1CN(c2cc(F)c(C3=CCN(c4ncc(C#N)s4)CC3)cc2NC(=O)c2c[nH]c(=O)cc2C(F)F)CCN1C` (stereo in doubt) [Example 686, N-[5-[1-(5-cyano-1,3-thiazol-2-yl)-3,6-dihydro-2H-pyridin-4-yl]-4-fluoro-2-[(3R)-3,4-dimethylpiperazin-1-yl]phenyl]-4-(difluoromethyl)-6-oxo-1H-pyridine-3-carboxamide], the Kd was 1.99 nM. `CC1CN(c2cc(F)c(C3=CCCN(c4ncc(C#N)s4)C3)cc2NC(=O)c2c[nH]c(=O)cc2C(F)F)CCN1C` (stereo in doubt) [Example 688, N-[5-[1-(5-cyano-1,3-thiazol-2-yl)-3,6-dihydro-2H-pyridin-5-yl]-4-fluoro-2-[(3R)-3,4-dimethylpiperazin-1-yl]phenyl]-4-(difluoromethyl)-6-oxo-1H-pyridine-3-carboxamide] gave a Kd of 2.49 nM. `CC1CN(c2cc(F)c(C3=CCCN(c4ncc(C#N)s4)C3)cc2NC(=O)c2ccc(F)cc2C(F)(F)F)CCN1C` (stereo in doubt) [Example 689, N-[5-[1-(5-cyano-1,3-thiazol-2-yl)-3,6-dihydro-2H-pyridin-5-yl]-4-fluoro-2-[(3R)-3,4-dimethylpiperazin-1-yl]phenyl]-4-fluoro-2-(trifluoromethyl)benzamide] showed a Kd of 6.28 nM. `CC1CN(c2cc(F)c(C3=CCN(C(=O)OC4CC(F)(F)C4)CC3)cc2NC(=O)c2c[nH]c(=O)cc2C(F)F)CCN1C` (stereo in doubt) [Example 703, (3,3-difluorocyclobutyl) 4-[5-[[4-(difluoromethyl)-6-oxo-1H-pyridine-3-carbonyl]amino]-2-fluoro-4-[(3R)-3,4-dimethylpiperazin-1-yl]phenyl]-3,6-dihydro-2H-pyridine-1-carboxylate] was tested, and the Kd was 1.03 nM. `CC1CN(c2cc(F)c(C3=CCCN(C(=O)OC4CC(F)(F)C4)C3)cc2NC(=O)c2c[nH]c(=O)cc2C(F)F)CCN1C` (stereo in doubt) [Example 705, (3,3-difluorocyclobutyl) 5-[5-[[4-(difluoromethyl)-6-oxo-1H-pyridine-3-carbonyl]amino]-2-fluoro-4-[(3R)-3,4-dimethylpiperazin-1-yl]phenyl]-3,6-dihydro-2H-pyridine-1-carboxylate] was tested, and the Kd was 2.02 nM. Work on `CC1CN(c2cc(F)c(C3=CCCN(C(=O)OC4CC(F)(F)C4)C3)cc2NC(=O)c2ccc(F)cc2C(F)(F)F)CCN1C` (stereo in doubt) [Example 706, (3,3-difluorocyclobutyl) 5-[2-fluoro-5-[[4-fluoro-2-(trifluoromethyl)benzoyl]amino]-4-[(3R)-3,4-dimethylpiperazin-1-yl]phenyl]-3,6-dihydro-2H-pyridine-1-carboxylate] yielded a Kd of 3.81 nM. With `CC1CN(c2cc(F)c(C3=CCN(C(=O)OC4CC(F)(F)C4)CC3)cc2NC(=O)c2ccc(F)cc2C(F)(F)F)CCN1C` (stereo in doubt) [Example 707, (3,3-difluorocyclobutyl) 4-[2-fluoro-5-[[4-fluoro-2-(trifluoromethyl)benzoyl]amino]-4-[(3R)-3,4-dimethylpiperazin-1-yl]phenyl]-3,6-dihydro-2H-pyridine-1-carboxylate] the Kd was 2.16 nM. With `CC1CN(c2cc(F)c(C3=CCN(c4ccnc(C#N)n4)CC3)cc2NC(=O)c2c[nH]c(=O)cc2C(F)F)CCN1C` (stereo in doubt) [Example 708, N-[5-[1-(2-cyanopyrimidin-4-yl)-3,6-dihydro-2H-pyridin-4-yl]-4-fluoro-2-[(3R)-3,4-dimethylpiperazin-1-yl]phenyl]-4-(difluoromethyl)-6-oxo-1H-pyridine-3-carboxamide] the Kd was 0.58 nM. With `CC1CN(c2cc(F)c(-c3cnn(CCN4CCOCC4)c3)cc2NC(=O)c2c[nH]c(=O)cc2C(F)(F)F)CCN1C` (stereo in doubt) [Example 714, N-[4-fluoro-5-[1-(2-morpholin-4-ylethyl)pyrazol-4-yl]-2-[(3R)-3,4-dimethylpiperazin-1-yl]phenyl]-6-oxo-4-(trifluoromethyl)-1H-pyridine-3-carboxamide] the Kd was 2.76 nM. `CC1CN(c2cc(F)c(-c3cnn(CCN4CCOCC4)c3)cc2NC(=O)c2cn(C)c(=O)cc2C(F)F)CCN1C` (stereo in doubt) [Example 715, 4-(difluoromethyl)-N-[4-fluoro-5-[1-(2-morpholin-4-ylethyl)pyrazol-4-yl]-2-[(3R)-3,4-dimethylpiperazin-1-yl]phenyl]-1-methyl-6-oxopyridine-3-carboxamide] was tested, and the Kd was 10.9 nM. In the case of `CC1CN(c2cc(F)c(-c3ccnc(N4CCOCC4)n3)cc2NC(=O)c2c[nH]c(=O)cc2C(F)(F)F)CCN1C` (stereo in doubt) [Example 718, N-[4-fluoro-5-(2-morpholin-4-ylpyrimidin-4-yl)-2-[(3R)-3,4-dimethylpiperazin-1-yl]phenyl]-6-oxo-4-(trifluoromethyl)-1H-pyridine-3-carboxamide], the Kd is reported as 1.09 nM. Work on `CC1CN(c2cc(F)c(-c3cccc(N4CCOCC4)n3)cc2NC(=O)c2c[nH]c(=O)cc2C(F)(F)F)CCN1C` (stereo in doubt) [Example 719, N-[4-fluoro-5-(6-morpholin-4-ylpyridin-2-yl)-2-[(3R)-3,4-dimethylpiperazin-1-yl]phenyl]-6-oxo-4-(trifluoromethyl)-1H-pyridine-3-carboxamide] yielded a Kd of 1.18 nM. Work on `CC1CN(c2cc(F)c(-c3ccnc(N4CCOCC4)n3)cc2NC(=O)c2c[nH]c(=O)cc2C(F)F)CCN1C` (stereo in doubt) [Example 720, 4-(difluoromethyl)-N-[4-fluoro-5-(2-morpholin-4-ylpyrimidin-4-yl)-2-[(3R)-3,4-dimethylpiperazin-1-yl]phenyl]-6-oxo-1H-pyridine-3-carboxamide] yielded a Kd of 1.31 nM.

From US11319299B2, “Substituted carboxamides as inhibitors of WDR5 protein-protein binding” (PROPELLON THERAPEUTICS INC., priority 2016, dated 2022)
